# Laboratory results reported in patent US20100298141A1, “SUBSTITUTED PYRIDINE N-OXIDE HERBICIDES” (E. I. DU PONT DE NEMOURS AND COMPANY, priority 2007, published 2010).
# Assays:
# Goosegrass = assay: Test C pre-/postemergence test; type: in vivo, Eleusin indica
# Procedure, shortened: (§1)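 Test chemicals were formulated with surfactant in a non-phytotoxic solvent and sprayed both on freshly planted seeds (preemergence) and on 1- to 4-leaf plants of 2–18 cm (postemergence). Flooded-paddy pots received compound directly into 3 cm of standing water, maintained for the test.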
# crabgrass = assay: Test A pre-/postemergence greenhouse test; type: in vivo, Digitaria sanguinalis; conditions: for Plant response rating, Crabgrass, Large: 0 to 100 scale where 0 is no effect and 100 is complete control; for Crabgrass, Large plant response rating: 0 to 100 scale
# Procedure, shortened: (§2)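 Test compounds in non-phytotoxic solvent with surfactant were applied as a preemergence soil spray to seeded loam/sand pots and, concurrently, postemergence to plants at 2–10 cm, one- to two-leaf stage. About ten days in greenhouse, then injury visually rated against untreated controls.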
# corn = assay: Test C pre-/postemergence test; type: in vivo, Zea mays
# Procedure, shortened: as §1
# woolly cupgrass = assay: Test C pre-/postemergence test; type: in vivo, Eriochloa villosa
# Procedure, shortened: as §1
# [1] = test system: common (oilseed) sunflower; assay: Test C pre-/postemergence test; type: in vivo, Helianthus annuus
# Procedure, shortened: as §1
# wild oat = assay: Test C pre-/postemergence test; type: in vivo, Avena fatua
# Procedure, shortened: as §1
# green foxtail = assay: Test C pre-/postemergence test; type: in vivo, Setaria viridis
# Procedure, shortened: as §1
# yellow nutsedge = assay: Test C pre-/postemergence test; type: in vivo, Cyperus esculentus
# Procedure, shortened: as §1
# blackgrass = assay: Test C pre-/postemergence test; type: in vivo, Alopecurus myosuroides
# Procedure, shortened: as §1
# duck salad = assay: Test C flooded paddy test; type: in vivo, Heteranthera limosa; conditions: Flood
# Procedure, shortened: (§3)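 Compound was added to standing water 3 cm above soil, flood maintained, and plants held in a greenhouse before visual scoring against controls at 13 to 15 days.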
# redroot pigweed = assay: Test A pre-/postemergence greenhouse test; type: in vivo, Amaranthus retroflexus; conditions: for Plant response rating, Pigweed: 0 to 100 scale where 0 is no effect and 100 is complete control; for Pigweed plant response rating: 0 to 100 scale
# Procedure, shortened: as §2
# eastern black nightshade = assay: Test C pre-/postemergence test; type: in vivo, Solanum ptycanthum
# Procedure, shortened: as §1
# common ragweed = assay: Test C pre-/postemergence test; type: in vivo, Ambrosia elation
# Procedure, shortened: as §1
# Italian ryegrass = assay: Test C pre-/postemergence test; type: in vivo, Lolium multiflorum
# Procedure, shortened: as §1
# umbrella sedge = assay: Test C flooded paddy test; type: in vivo, Cyperus difformis; conditions: Flood
# Procedure, shortened: as §3
# wheat = assay: Test C pre-/postemergence test; type: in vivo, Triticum aestivum
# Procedure, shortened: as §1
# morningglory = assay: Test A pre-/postemergence greenhouse test; type: in vivo, Ipomoea spp.; conditions: for Plant response rating, Morningglory: 0 to 100 scale where 0 is no effect and 100 is complete control; for Morningglory plant response rating: 0 to 100 scale
# Procedure, shortened: as §2
# [2] = 62 g ai/ha, Preemergence, scale 0 to 100
# [3] = 125 g ai/ha, preemergence, scale 0 (no effect) to 100 (complete control)
# [4] = Postemergence, 62 g ai/ha, scale 0 to 100, 0 no effect, 100 complete control
# [5] = Postemergence, 125 g ai/ha, scale 0 to 100, 0 no effect, 100 complete control
# [6] = Postemergence, 250 g ai/ha, scale 0 to 100, 0 no effect, 100 complete control
# [7] = Preemergence, 31 g ai/ha, scale 0 to 100 (0 no effect, 100 complete control)
# [8] = preemergence, 250 g ai/ha, scale 0 (no effect) to 100 (complete control)
# [9] = Postemergence, 500 g ai/ha, 0 is no effect, 100 is complete control
# [10] = Preemergence, 125 g ai/ha, 0 no effect, 100 complete control
# [11] = 62 g ai/ha, scale 0 to 100 (0 no effect, 100 complete control)
# [12] = 250 g ai/ha, scale 0 to 100, 0 no effect, 100 complete control, 13 to 15 days
smiles,measurement,setting,value
Cn1nc(C(F)(F)F)c(C[S+]([O-])c2ccc(F)c[n+]2[O-])c1OC(F)F (centres unmarked) [Compound 58],Goosegrass plant response rating,Goosegrass; [2],90
same,Goosegrass plant response rating,Goosegrass; [3],100
same,"Plant response rating (0 to 100), Goosegrass","Goosegrass; Postemergence, 31 g ai/ha",0
same,"Plant response rating, Goosegrass",Goosegrass; [4],0
same,"Plant response rating, Goosegrass",Goosegrass; [5],5
same,"Plant response rating, Goosegrass",Goosegrass; [6],60
same,"Plant response rating, Goosegrass",Goosegrass; [7],80
same,Goosegrass plant response rating,Goosegrass; [8],100
same,"Plant response rating, Crabgrass, Large","crabgrass; Postemergence, 125 g ai/ha",80
same,"Crabgrass, Large plant response rating",crabgrass; [9],90
same,"Crabgrass, Large plant response rating",crabgrass; [10],80
same,"Plant response rating, Crabgrass, Large","crabgrass; Preemergence, 500 g ai/ha",100
same,Corn plant response rating,corn; [2],100
same,Corn plant response rating,corn; [3],100
same,"Plant response rating (0 to 100), Corn","corn; Postemergence, 31 g ai/ha",0
same,"Plant response rating, Corn",corn; [4],0
same,"Plant response rating, Corn",corn; [5],0
same,"Plant response rating, Corn",corn; [6],0
same,"Plant response rating, Corn",corn; [7],75
same,Corn plant response rating,corn; [8],100
same,"Cupgrass, Woolly plant response rating",woolly cupgrass; [2],60
same,"Cupgrass, Woolly plant response rating",woolly cupgrass; [3],95
same,"Plant response rating (0 to 100), Cupgrass, Woolly","woolly cupgrass; Postemergence, 31 g ai/ha",0
same,"Plant response rating, Cupgrass, Woolly",woolly cupgrass; [4],0
same,"Plant response rating, Cupgrass, Woolly",woolly cupgrass; [5],10
same,"Plant response rating, Cupgrass, Woolly",woolly cupgrass; [6],80
same,"Plant response rating, Cupgrass, Woolly",woolly cupgrass; [7],10
same,"Cupgrass, Woolly plant response rating",woolly cupgrass; [8],100
same,Sunflower plant response rating,[1]; [2],35
same,Sunflower plant response rating,[1]; [3],35
same,"Plant response rating, Sunflower",[1]; [7],10
same,Sunflower plant response rating,[1]; [8],85
same,"Oat, Wild plant response rating",wild oat; [2],45
same,"Oat, Wild plant response rating",wild oat; [3],80
same,"Plant response rating (0 to 100), Oat, Wild","wild oat; Postemergence, 31 g ai/ha",0
same,"Plant response rating, Oat, Wild",wild oat; [4],0
same,"Plant response rating, Oat, Wild",wild oat; [5],0
same,"Plant response rating, Oat, Wild",wild oat; [6],5
same,"Plant response rating, Oat, Wild",wild oat; [7],20
same,"Oat, Wild plant response rating",wild oat; [8],80
same,"Foxtail, Green plant response rating",green foxtail; [2],98
same,"Foxtail, Green plant response rating",green foxtail; [3],100
same,"Plant response rating (0 to 100), Foxtail, Green","green foxtail; Postemergence, 31 g ai/ha",0
same,"Plant response rating, Foxtail, Green",green foxtail; [4],25
same,"Plant response rating, Foxtail, Green",green foxtail; [5],50
same,"Plant response rating, Foxtail, Green",green foxtail; [6],80
same,"Plant response rating, Foxtail, Green",green foxtail; [7],70
same,"Foxtail, Green plant response rating",green foxtail; [8],100
same,"Nutsedge, Yellow plant response rating",yellow nutsedge; [2],40
same,"Nutsedge, Yellow plant response rating",yellow nutsedge; [3],70
same,"Plant response rating (0 to 100), Nutsedge, Yellow","yellow nutsedge; Postemergence, 31 g ai/ha",0
same,"Plant response rating, Nutsedge, Yellow",yellow nutsedge; [4],0
same,"Plant response rating, Nutsedge, Yellow",yellow nutsedge; [5],0
same,"Plant response rating, Nutsedge, Yellow",yellow nutsedge; [6],50
same,"Plant response rating, Nutsedge, Yellow",yellow nutsedge; [7],0
same,"Nutsedge, Yellow plant response rating",yellow nutsedge; [8],98
same,Blackgrass plant response rating,blackgrass; [2],98
same,Blackgrass plant response rating,blackgrass; [3],100
same,"Plant response rating (0 to 100), Blackgrass","blackgrass; Postemergence, 31 g ai/ha",0
same,"Plant response rating, Blackgrass",blackgrass; [4],0
same,"Plant response rating, Blackgrass",blackgrass; [5],30
same,"Plant response rating, Blackgrass",blackgrass; [6],80
same,"Plant response rating, Blackgrass",blackgrass; [7],98
same,Blackgrass plant response rating,blackgrass; [8],100
same,"Plant response rating, Ducksalad",duck salad; [11],70
same,"Plant response rating, Ducksalad",duck salad; [12],80
same,"Plant response rating, Pigweed","redroot pigweed; Postemergence, 125 g ai/ha",70
same,Pigweed plant response rating,redroot pigweed; [9],90
same,Pigweed plant response rating,redroot pigweed; [10],80
same,"Plant response rating, Pigweed","redroot pigweed; Preemergence, 500 g ai/ha",100
same,Nightshade plant response rating,eastern black nightshade; [2],100
same,Nightshade plant response rating,eastern black nightshade; [3],100
same,"Plant response rating, Nightshade",eastern black nightshade; [7],100
same,Nightshade plant response rating,eastern black nightshade; [8],100
same,Ragweed plant response rating,common ragweed; [2],30
same,Ragweed plant response rating,common ragweed; [3],55
same,"Plant response rating (0 to 100), Ragweed","common ragweed; Postemergence, 31 g ai/ha",0
same,"Plant response rating (0 to 100), Ragweed","common ragweed; Postemergence, 62 g ai/ha",0
same,"Plant response rating, Ragweed",common ragweed; [5],0
same,"Plant response rating, Ragweed",common ragweed; [6],30
same,"Plant response rating, Ragweed",common ragweed; [7],30
same,Ragweed plant response rating,common ragweed; [8],100
same,"Ryegrass, Italian plant response rating",Italian ryegrass; [2],70
same,"Ryegrass, Italian plant response rating",Italian ryegrass; [3],98
same,"Plant response rating (0 to 100), Ryegrass, Italian","Italian ryegrass; Postemergence, 31 g ai/ha",0
same,"Plant response rating (0 to 100), Ryegrass, Italian","Italian ryegrass; Postemergence, 62 g ai/ha",40
same,"Plant response rating, Ryegrass, Italian",Italian ryegrass; [5],70
same,"Plant response rating, Ryegrass, Italian",Italian ryegrass; [6],90
same,"Plant response rating, Ryegrass, Italian",Italian ryegrass; [7],40
same,"Ryegrass, Italian plant response rating",Italian ryegrass; [8],100
same,"Plant response rating, Sedge, Umbrella",umbrella sedge; [11],80
same,"Plant response rating, Sedge, Umbrella",umbrella sedge; [12],80
same,Wheat plant response rating,wheat; [2],60
same,Wheat plant response rating,wheat; [3],85
same,"Plant response rating (0 to 100), Wheat","wheat; Postemergence, 31 g ai/ha",0
same,"Plant response rating (0 to 100), Wheat","wheat; Postemergence, 62 g ai/ha",0
same,"Plant response rating, Wheat",wheat; [5],20
same,"Plant response rating, Wheat",wheat; [6],60
same,"Plant response rating, Wheat",wheat; [7],10
same,Wheat plant response rating,wheat; [8],90
same,"Plant response rating, Morningglory","morningglory; Postemergence, 125 g ai/ha",70
same,Morningglory plant response rating,morningglory; [9],90
same,Morningglory plant response rating,morningglory; [10],60
same,"Plant response rating, Morningglory","morningglory; Preemergence, 500 g ai/ha",100
